{
  "source": "paper PMC12154284",
  "about": "“FYCO1 Peptide Analogs: Design and Characterization of Autophagy Inhibitors as Co-Adjuvants in Taxane Chemotherapy of Prostate Cancer” (International Journal of Molecular Sciences, 2025)",
  "key": {"[1]": {"system": "PC-3 cells", "test": "MTT cell viability, PC-3", "format": "cell-based, Human", "conditions": "MTT, 48 h, 1-100 nM", "procedure": "The study was conducted on several cancer cells. Human CRPC cell lines (PC-3 and DU145) were purchased from the American Type Culture Collection (ATCC, Manassas, VA, USA) and cultured at 37 °C and 5% CO2 in RPMI 1640 (EuroClone, Milano, Italy) supplemented, respectively, with 7.5% (PC3) and 5% (DU145) FBS (Gibco, ThermoFisher Scientific, Waltham, MA, USA), 1% L-glutamine, and antibiotics (100 IU/mL penicillin G). Luminal A MCF-7 breast cancer cells (ATCC, Manassas, VA, USA) were cultured in Dulbecco’s Modified Eagle Medium/Nutrient Mixture F-12 (DMEM-F12, Gibco Laboratories, Waltham, MA, USA) supplemented with 10% fetal bovine serum (FBS, Gibco Laboratories, Waltham, MA, USA), 1% penicillin/streptomycin (Gibco Laboratories), and 1% L-glutamine (Gibco Laboratories). A549 human lung cancer cell line (ATCC, Manassas, VA, USA) were cultured in Dulbecco’s modified eagle medium (DMEM, Lonza, Switzerland) supplemented with 10% FBS (Gibco Laboratories, Waltham, MA, USA), 1% of 100 u/mL penicillin/streptomycin (Gibco Laboratories), and 1% L-glutamine (Gibco Laboratories). […]\nFor viability studies, MTS (Cell Titer 96 Aqueous One Solution Cell Proliferation Assay) (Promega, Nacka, Sweden) and 3-(4,5-dimethylthiazole-2-yl)-2,5-diphenyltetrazolium bromide (MTT) (Sigma-Aldrich, St. Louis, MO, USA) assays were conducted. […] The absorbance (λ = 550 nm) was measured by an EnSpire Multimode Plate reader (Perkin Elmer, Milano, Italy). The absorbance value of untreated cells was set at 100% (control), and the viability of treated cells was expressed as a percentage of the control. […] After 72 h, cell viability was assessed using an MTS assay according to the manufacturer’s protocol using a 96-well-plate spectrophotometer (Varioskan Flash Multimode Reader; ThermoFisher Scientific, Waltham, MA, USA) set at λ = 490 nm. The absorbance value of untreated cells was set at 100% (control), and the viability of treated cells was expressed as a percentage of the control. […]"}, "[2]": {"system": "LC3-I and LC3-II in PC-3 cells", "test": "Western blot of LC3-I and LC3-II in PC-3 cells", "format": "cell-based, Human", "conditions": "AM10, Doc (25 nM) or both, 48 h", "procedure": "(§1) PC-3 cells were plated at 2 × 10^5 cells/dish in 6 cm dishes and treated with different compounds. At the end of the treatments the cells were lysed in RIPA buffer. Protein extracts (15–35 μg) were resuspended in presence of reducing Sample buffer (Bio-Rad Laboratories, Segrate, Milano, Italy), heated at 95 °C for 5 min and separated by SDS-PAGE WB. Proteins were transferred onto nitrocellulose or PVDF membranes. After blocking with nonfat dried milk, membranes were incubated with anti-ATG5 (1:1000) (#12994) Cell Signaling Technology Inc. (Boston, MA, USA), anti-LC3 (1:1000) (L8918) (Sigma-Aldrich), anti-SQSTM1/p62 (1:2000) (PA5-20839) (Thermo Fisher Scientific, Waltham, MA, USA), anti-cleaved-caspase-3 (1:500) (#9664) Cell Signaling Technology Inc. primary antibodies overnight at 4 °C. Horseradish peroxidase (HRP) conjugated secondary anti-rabbit or anti-mouse antibodies were used for 1 h at room temperature and the membranes were processed using chemiluminescence kit Cyanagen Ultra (Cyanagen, Bologna, Italy). In each WB experiment alpha-tubulin expression (T6199) (Sigma-Aldrich, St. Louis, MO, USA) was evaluated as a protein control. Relative optical density of the bands was assessed by ImageJ software (version 1.54g). Uncropped WB images are available in the Supporting Information."}, "[3]": {"system": "cleaved caspase-3 in PC-3 cells", "test": "Western blot of cleaved caspase-3 in PC-3 cells", "format": "cell-based, Human", "conditions": "AM10, Doc (25 nM) or both, 48 h", "procedure": "as §1"}, "[4]": {"target": "LC3B (Homo sapiens) (UniProt Q9GZQ8)", "conditions": "cited from earlier work"}, "[5]": {"target": "human recombinant His-tagged LC3B (Homo sapiens, UniProt Q9GZQ8)", "test": "MST binding to human recombinant His-tagged LC3B", "conditions": "Table S1", "experimental": "To measure the dissociation constants (Kd) of the peptides on human recombinant His-tagged LC3B protein, MST experiments were carried out on a Monolith NT.115^Pico instrument (see the Materials and Methods section for details).\nA constant concentration of red-labelled LC3B (10 nM) was incubated with sixteen 1:1 serial dilutions of peptides (concentration details are consultable in the Supplementary Materials, Table S1). PBS-T (phosphate-buffered saline + 0.05% Tween™ 20), from NanoTemper Technologies, with 2.5% dimethyl sulfoxide (DMSO) (Product No. D8418; Sigma-Aldrich, Saint Louis, MO, USA) was used as buffer. After 15 min of incubation at room temperature, samples were loaded into standard capillaries (Product No. MO-K022; NanoTemper Technologies) and analyzed at 25 °C with 20% excitation power and medium MST power (40%) using the “Binding Affinity” mode available in the MO.Control v1.6 software (NanoTemper Technologies GmbH, München, Germany). Prior to Kd determination, peptide auto-fluorescence was assessed. Data analysis was performed using MO.Affinity Analysis v2.3 software (NanoTemper Technologies GmbH, München, Germany) applying the Kd model for fitting the binding curve, while the figures were generated using GraphPad Prism v8.0.2 software (GraphPad, Boston, MA, USA).\nTwo independent experiments were performed to determine the Kd value.\nRA = Response Amplitude; SNR = Signal -to-Noise Ratio."}, "[6]": {"system": "PC cells", "conditions": "with Doc, cited from earlier work", "description": "(§2) Many studies have analyzed the nature of autophagy activated by Doc in PC and the impact of autophagy inhibitors on cell proliferation. The results obtained using 3-Methyladenine (3-MA) in association with Doc were contradictory. […] A more convincing result was obtained using the autophagy inhibitor CQ which enhanced the action ..."}, "[7]": {"system": "autophagic response", "conditions": "CRPC therapy; ref [39]; cited from earlier work", "description": "An important problem of tumor is represented by therapy resistance. In fact, in prostate cancer, numerous studies have investigated the implications of autophagy in resistance to hormonal therapies or chemotherapeutic agents. […] Docetaxel (Doc), a chemotherapeutic drug which inhibits microtubule depolymerization, represents the first-line treatment for metastatic CRPC. The treatment is effective in the early stages, but over time its efficacy is drastic ..."}, "[8]": {"system": "PC-3 cells", "conditions": "with Doc; ref [45]; cited from earlier work", "description": "as §2"}, "[9]": {"system": "breast and colon cancer cells", "conditions": "ref [32]; cited from earlier work", "description": "The growing applications of bromine and iodine substituents in anticancer treatment lend ..."}, "[10]": {"test": "Peptide aggregation in MST capillaries", "format": "physicochemical", "procedure": "This technique enables the determination of the dissociation constant (Kd) across a concentration range spanning from 1 picomolar (pM) to the millimolar (mM) level. The experimental conditions mirrored those in our previously published work. […] A constant concentration of red-labelled LC3B (10 nM) was incubated with sixteen 1:1 serial dilutions of peptides (concentration details are consultable in the Supplementary Materials, Table S1). PBS-T (phosphate-buffered saline + 0.05% Tween™ 20), from NanoTemper Technologies, with 2.5% dimethyl sulfoxide (DMSO) (Product No. D8418; Sigma-Aldrich, Saint Louis, MO, USA) was used as buffer. After 15 min of incubation at room temperature, samples were loaded into standard capillaries (Product No. MO-K022; NanoTemper Technologies) and analyzed at 25 °C with 20% excitation power and medium MST power (40%) using the “Binding Affinity” mode available in the MO.Control v1.6 software (NanoTemper Technologies GmbH, München, Germany). Prior to Kd determination, peptide auto-fluorescence was assessed. […] The “Capillary Scan” graphs, showing the fluorescence homogeneity in the capillaries of all biophysically tested peptides, are provided in the Supplementary Materials, Figure S5."}},
  "note": "“Also recorded” adds a separate entry of the source.",
  "data": [
    {"compound": "CC(=O)O[C@@]12CO[C@@H]1C[C@H](O)[C@@]1(C)C(=O)[C@H](O)C3=C(C)[C@@H](OC(=O)[C@H](O)[C@@H](NC(=O)OC(C)(C)C)c4ccccc4)C[C@@](O)([C@@H](OC(=O)c4ccccc4)[C@H]21)C3(C)C", "note": "[Doc, Docetaxel, reference compound]", "values": [
      {"measurement": "PC-3 cell viability, Docetaxel", "setting": "[1]", "result": "significant reduction in cell viability at concentrations of 10 nM, 25 nM, 50 nM, and 100 nM, with a dose-dependent effect"},
      {"measurement": "LC3-I / LC3-II expression, Doc/AM10 experiment", "setting": "[2]", "result": "significant increase in LC3-II expression"},
      {"measurement": "cleaved caspase-3 / apoptosis", "setting": "[3]", "result": "trigger apoptotic cell death by activating the executor caspase-3"}
    ]},
    {"compound": "FYCO1-LIR peptide", "values": [
      {"measurement": "Kd", "setting": "[4]", "result": 3.1, "unit": "µM"}
    ]},
    {"compound": "CC[C@H](C)[C@H](NC(=O)[C@H](CC(=O)O)NC(=O)[C@H](Cc1ccc(I)cc1)NC(=O)[C@@H](NC(=O)[C@H](C)NC(=O)[C@@H](N)CC(=O)O)C(C)C)C(=O)N[C@H](C(=O)N[C@H](C(=O)N[C@@H](CC(=O)O)C(=O)N[C@@H](CCC(=O)O)C(=O)N[C@@H](CCC(=O)O)C(=O)N[C@@H](CC(C)C)C(=O)O)[C@@H](C)O)[C@@H](C)CC", "note": "[AM2]", "values": [
      {"measurement": "Response Amplitude (RA)", "setting": "[5]", "result": 7.8}
    ]},
    {"compound": "CCN(CC)CCCC(C)Nc1ccnc2cc(Cl)ccc12", "note": "(stereo not drawn) [CQ, Chloroquine]", "values": [
      {"measurement": "effect on the action of Doc", "setting": "[6]; ref [49]", "result": "enhanced the action of Doc by reducing resistance to chemotherapy"}
    ]},
    {"compound": "CNC(=O)c1ccc(N2C(=S)N(c3ccc(C#N)c(C(F)(F)F)c3)C(=O)C2(C)C)cc1F", "note": "[Enzalutamide]", "values": [
      {"measurement": "autophagic response", "setting": "[7]", "result": "activate an autophagic response that reduces their effectiveness"}
    ]},
    {"compound": "Cn1cnc(N)c2ncnc1-2", "note": "[3-MA, 3-Methyladenine]", "values": [
      {"measurement": "effect on chemotherapy efficacy", "setting": "[6]; ref [43],[47],[48]", "result": "decreased the chemotherapy efficacy"},
      {"measurement": "effect on cytotoxic action of Doc", "setting": "[6]; ref [46] Hu and collaborators", "result": "enhanced the cytotoxic action of Doc"},
      {"measurement": "effect on cytotoxicity of Doc in PC-3 cells", "setting": "[8]", "result": "does not modify the cytotoxicity of Doc in PC-3 cells"}
    ]},
    {"compound": "Cc1ccc(S(=O)(=O)[N-]Br)cc1.[Na+]", "note": "[bromamine T]", "values": [
      {"measurement": "cytotoxic effects against breast and colon cancer cells", "setting": "[9]", "result": "strong cytotoxic effects against breast and colon cancer cells"}
    ]},
    {"compound": "CC[C@H](C)[C@H](NC(=O)[C@H](CC(=O)O)NC(=O)[C@H](Cc1ccccc1)NC(=O)[C@@H](NC(=O)[C@H](C)NC(=O)[C@@H](N)CC(=O)O)C(C)C)C(=O)N[C@H](C(=O)N[C@H](C(=O)N[C@H]1CSCc2ccc(cc2)CSC[C@@H](C(=O)O)NC(=O)[C@H](CCC(=O)O)NC(=O)[C@H](CCC(=O)O)NC1=O)[C@@H](C)O)[C@@H](C)CC", "note": "[AM7]", "values": [
      {"measurement": "Response Amplitude (RA)", "setting": "[5]", "result": 3.7},
      {"measurement": "aggregation at highest concentrations, in words", "setting": "[10]; 125, 62.5 and 31.25 µM, MST capillary scan, PBS-T + 2.5% DMSO", "result": "the three highest concentration points (125, 62.5, and 31.25 µM) were discarded due to aggregation; also recorded: the three highest concentrations (125, 62.5, and 31.25 µM) were excluded from analysis due to aggregation phenomena"},
      {"measurement": "concentration at which aggregation is displayed", "setting": "[10]; MST buffer PBS-T + 2.5% DMSO, 25 °C", "result": "≥ 31.25", "unit": "µM"}
    ]},
    {"compound": "C[C@]12CC[C@H](O)CC1=CC[C@@H]1[C@@H]2CC[C@]2(C)C(c3cccnc3)=CC[C@@H]12", "note": "[Abiraterone]", "values": [
      {"measurement": "autophagic response", "setting": "[7]", "result": "activate an autophagic response that reduces their effectiveness"}
    ]}
  ]
}
